Measured values reported in patent US11612586B2, “Indole regulation of antigen presenting cells” (THE TEXAS A&M UNIVERSITY SYSTEM, priority 2016, dated 2023).

Columns and labels:
MHC-II and CD86 = settings: BMDC, indole from day 0, 3, or 6, LPS stimulation
Salmonella Typhimurium [1] = assay: Salmonella invasion of and intracellular survival in J774.A1 macrophages; assay type: cell-based
TLR4 = assay: Surface TLR4 expression on DC2.4 and BMDC; settings: DC2.4 and BMDC 18 hours indole, BMDC indole from day 3
Salmonella Typhimurium [2] = assay: Salmonella invasion of HeLa epithelial cells (Salmonella exposed to indole); assay type: cell-based
IL-10 = IL-10 production by BMDC cultures (ELISA); assay type: cell-based, mouse; settings: indole-conditioned DCs
Method: To determine whether this was a specific downregulation of pro-inflammatory cytokines, production of the canonical DC-produced anti-inflammatory cytokines, IL-10 and TGF-β, was also examined.
Cytokine concentration in the supernatant of BMDC cultures was assessed using commercially available ELISA kits for IL-10 (Peprotech) and TGF-β (eBioscience) per the manufacturer's instructions.

CCR9 = CCR9 surface expression on BMDCs; assay type: cell-based, mouse; settings: BMDCs cultured from day 3 with indole (1 mM) or retinoic acid (1 μM), day 7
Method: FIGS. 12A and 12B graphically illustrate that indole induces CCR9 and B220 on DCs. BMDCs were cultured in the presence of indole (1 mM), retinoic acid (1 μM), or DMF solvent control from day 3. On day 7, DCs were surface stained for expression of CCR9 and B220 and analyzed by flow cytometry. […] Mean of three independent experiments. * indicates p<0.05 for one-way ANOVA followed by Dunnett's post-test.
Dendritic cell subsets bear numerous surface antigens that regulate their migration and localization. Because indole is produced in the gut and appears to induce anti-inflammatory properties in DCs (as described above), it was hypothesized that indole might affect migration and retention in mucosal tissues. Thus, expression of the gut homing marker, chemokine receptor CCR9 was investigated. […] Retinoic acid (RA) was included as a positive control. RA is present in murine plasma at approximately […] and is predicted to exist at higher concentrations in tissue microenvironments in vivo. Thus, 1 uM was used as a conservative estimate of relevant physiological concentration. Indole's effect was even more profound than that of retinoic acid, a known inducer of mucosal homing markers on T cells (see, e.g., Iwata M, et al. (2004) Retinoic Acid Imprints Gut-Homing Specificity on T Cells. Immunity 21(4):527-538). […]

Salmonella Typhimurium [3] = assay: Colonization of mice by Salmonella exposed to indole; assay type: in vivo; settings: Salmonella exposed to indole compared to solvent-treated controls
Erk = assay: pERK signaling in BMDCs; assay type: cell-based, mouse; settings: 1 mM TDMM 24 hours, CpG (5 uM) 15 minutes
Method: The inventors performed a series of assays where bone marrow derived macrophages (BMDMs), bone marrow derived dendritic cells (BMDCs), and splenic dendritic cells (splenic DCs), were exposed to a series of TDMMs, including indole, indole-3-acetate (I3AT), 5-hydroxyindole (5HI), and indole-3-pyruvate (I3P), as well as indole-3-carbinol (I3C; a plant derived compound) to be used for a positive control (1 mM for 24 hours). The BMDMs and BMDCs were stimulated with LPS for 4 hours and assayed at day 7 for expression of various pro-inflammatory cytokines. In a similar assay, the BMDMs and BMDCs were stimulated with LPS or CpG, respectively, for 15 minutes and assayed for pAKT and pERK signaling, which is a reflection of pro-inflammatory response.

aldh1a2 = aldh1a2 gene expression in BMDCs, real-time qPCR; assay type: cell-based, murine; settings: day 7 BMDCs cultured with indole from day 3
Method: FIG. 13A: BMDCs were cultured from day 3 with indole (1 mM), retinoic acid (1 uM), or DMF control were assayed for aldehyde dehydrogenase (ALDH) activity using the Aldefluor commercial kit. The ALDH inhibitor, DEAB reagent, was included to control for background fluorescence. Aldefluor fluorescence as a measure of ALDH activity was analyzed by flow cytometry. Data is reported as percentage of Aldefluor positive DCs (left panel) and corresponding MFI values (right panel). Individual dots represent data from five independent experiments. FIG. 13B: Gene expression of aldh1a2 was assayed by real-time qPCR in day 7 BMDCs cultured with indole from day 3. Gene expression was normalized to 18 s ribosomal RNA. Mean of three independent experiments. *p<0.05 by Student's t test.
Total RNA was extracted from BMDCs using RNeasy Mini Kit (Qiagen) and then retro-transcribed using cDNA Superscript Mastermix (Quanta). Quantitative PCR reactions were carried out in triplicate using Perfecta SYBR Green Fast Mix, Low ROX (Quanta).
Gene expression levels for each individual sample were normalized to 18 s. Mean relative gene expression was determined and differences were calculated using the 2^−ΔC(t) method.

IL-12 = IL-12 production in splenic CD11c+ DCs ex vivo; settings: indole overnight, LPS or heat-killed S. typhimurium
naïve CD4+CD25− T cells = assay: DC-T cell co-culture without cell contact (Transwell): Treg induction; assay type: cell-based, mouse; settings: exogenous TGF-β added, 3 days
IL-6 = IL-6 production in BMDCs, intracellular staining, flow cytometry; assay type: cell-based, mouse; settings: indole 24 hours (overnight), LPS 1 ug/ml 4 hours
Description: Briefly, bone marrow was harvested from femurs of mice and cultured for 7 days in the presence of DC-skewing cytokines, GM-CSF and IL-4. […] The pro-inflammatory cytokines, IL-6 and IL-12, were specifically queried. […] Immune cells communicate largely through the production of soluble factors including cytokines, and DCs detect these signals and determine their effector functions accordingly.

c1ccc2[nH]ccc2c1 [Indole, indole]
DC maturation (MHC-II and CD86 expression) (MHC-II and CD86): did not alter DC maturation
intracellular survival of Salmonella in J774.A1 macrophages (Salmonella Typhimurium [1]): not significantly affected
decrease of Salmonella invasion of J774.A1 macrophages (Salmonella Typhimurium [1]; Salmonella exposed to indole): 2 fold
surface TLR4 expression on DCs (TLR4): does not alter surface TLR4 expression
decrease of Salmonella invasion of HeLa epithelial cells (Salmonella Typhimurium [2]): 160 fold
IL-10 production (IL-10): Neither IL-10 nor TGF-β production were affected
surface expression of CCR9 on conditioned DCs (CCR9): 34%
competitiveness of Salmonella in colonizing mice (Salmonella Typhimurium [3]): less competitive
pERK (Erk): ↓↓
aldh1a2 expression (aldh1a2): inhibits
inhibition of IL-12 production (IL-12): ≥ 2 fold
Treg induction by conditioned DCs without cell contact over solvent controls (naïve CD4+CD25− T cells): did not enhance Treg skew
inhibition of IL-6 production (IL-6): ≥ 2 fold
